This is an account of results in patent US20170239351A1, “Therapeutic Combinations of a BTK Inhibitor, a PI3K Inhibitor, a JAK-2 Inhibitor, a PD-1 Inhibitor, and/or a PD-L1 Inhibitor” (Acerta Pharma B.V., priority 2014, published 2017).

The test system of data set [1] is B cell receptor. As to the kind of experiment: Whole blood B cell receptor signalling assay (anti-IgD, CD69 on CD19+ B cells). To be noted: 2 h incubation, anti-human IgD 18 h. The class given is cell-based. As for the experimental part:
Blood from four healthy donors was incubated for 2 hours with the compounds shown over a concentration range, and then stimulated with anti-human IgD [10 μg/mL] for 18 hours. The mean fluorescent intensity (MFI) of CD69 (and CD86, data not shown) on gated CD19+ B cells was measured by flow cytometry.

Data set [2] deals with KPC derived mouse pancreatic cancer cells. As to the kind of experiment: Orthotopic pancreatic cancer model (KPC-derived cells). The class given is in vivo, C57BL/6 mice. To be noted: 15 mg/kg oral of each drug. As for the experimental part:
Orthotopic pancreatic cancer models in mice are clinically relevant, benefit from tissue site-specific pathology, and allow for study of metastasis. Qiu and Su, Methods Mol. Biol. 2013, 980, 215-223. A cell line derived from KrasG12D; Trp53R172H; Pdx1-Cre (KPC) mice was orthotopically implanted into the head of the pancreas after 35 passages. Based on the mice background from where the cell lines were generated, 1×10^6 cells were injected in C57BL/6 mice. Throughout the experiment, animals were provided with food and water ad libitum and subjected to a 12-h dark/light cycle. Animal studies were performed in accordance with the U.S. Public Health Service “Guidelines for the Care and Use of Laboratory Animals” (IACUC). After euthanization, pancreatic tumors were dissected out, weighed and single cell suspensions were prepared for flow cytometry analysis.
Results of the experiments are shown in FIG. 110, which illustrates tumor growth suppression in the orthotopic pancreatic cancer model. The statistical p-value (presumption against null hypothesis) is shown for each tested single active pharmaceutical ingredient and for the combination against the vehicle.
In this study, KrasG12D;Trp53R172H; Pdx1-Cre (KPC) derived mouse pancreatic cancer cells (10,000 cells) were injected into the pancreases of 24 female mice. After one week of expansion, drug treatment was started in mice developing pancreatic tumors.
Single cell suspensions from tumor samples were prepared as follows. Mouse tumor tissue was collected and stored in PBS/0.1% soybean trypsin inhibitor prior to enzymatic dissociation. […] Following surface staining, samples were acquired on a BD Fortessa and analyzed using FlowJo (Treestar) software.

Data set [3] concerns CD8^+ T cell function. As to the kind of experiment: Cytotoxicity assay for CD8+ T cell function. The class given is cell-based. The following applies: relative to vehicle.
Data set [4] has as its system human platelets. As to the kind of experiment: GPVI (convulxin-induced) platelet aggregation. The class given is cell-based. As for the experimental part:
GPVI platelet aggregation was measured for Formula (XVIII) and Formula (XX-A) (ibrutinib). Blood was obtained from untreated humans, and platelets were purified from […] by centrifugation. Cells were resuspended to a final concentration of 350,000/μL in buffer containing 145 mmol/L NaCl, 10 mmol/L HEPES, 0.5 mmol/L Na2HPO4, 5 mmol/L KCl, 2 mmol/L MgCl2, 1 mmol/L CaCl2, and 0.1% glucose, at pH 7.4. Stock solutions of Convulxin (CVX) GPVI were prepared on the day of experimentation and added to platelet suspensions 5 minutes (37° C., 1200 rpm) before the induction of aggregation. Aggregation was assessed with a Chronolog Lumi-Aggregometer (model 540 VS; Chronolog, Havertown, Pa.) and permitted to proceed for 6 minutes after the addition of agonist. The results are reported as maximum percent change in light transmittance from baseline with platelet buffer used as a reference.
In FIG. 129, the results of CVX-induced (250 ng/mL) human platelet aggregation results before and 15 minutes after administration of the BTK inhibitors to 6 healthy individuals are shown.

Data set [5] relates to CD8^+ T cell. The experiment in a line: CD8+ T cell viability. The class given is cell-based.
The test system of data set [6] is CD4^+ T cells. As to the kind of experiment: Th17 and Treg development from CD4+ T cells. The class given is cell-based. As for the experimental part: Enriched CD4^+ T cells are plated on 24-well culture dishes that have been precoated 2 hr with 250 μL anti-TCRβ (0.5 μg/mL) plus anti-CD28 (5 μg/mL) at 37° C. in PBS. The cells are then supplemented with media containing BTK inhibitors along with the skewing cytokines as indicated in the following. The Th17 and Treg cultures are grown for 4 days before analysis. The cells are maintained for an additional 3 days with skewing cytokines (Th17; 20 ng/mL IL-6, 0.5 ng/mL TGF-β, 5 μg/mL IL-4, 5 μg/mL IFN-γ and Treg; 0.5 ng/mL TGF-β, 5 μg/mL IL-4, 5 μg/mL IFN-γ) and are supplemented with IL2 as a growth factor.

Data set [7] relates to CD8^+ T cells. The experiment in a line: Cytotoxic T cell (CTL) assay. To be noted: 500 nM. The class given is cell-based. The protocol:
Without being bound by any theory, CD8^+ T cells have two primary effector functions: (1) produce large amounts of IFN-γ (which activates macrophages), and (2) cytolytic activity. […] The targets were B lymphoblasts from lipopolysaccharide (LPS) treated cultures. The assay was performed by incubating different ratios of effectors:targets for 4 hours.

The subject of data set [8] is human platelet-mediated thrombosis. The arrangement: species or system VWF HA1 mice (human platelets). The following applies: in vivo. The protocol: […]. Injury to the vessel wall of arterioles ([…] diameter) was performed using a pulsed nitrogen dye laser (440 nm, Photonic Instruments) applied through a 20× water-immersion Olympus objective (LUMPlanF1, 0.5 numerical aperature (NA)) of a Zeiss Axiotech vario microscope. Human platelet and wall interactions were visualized by fluorescence microscopy using a system equipped with a Yokogawa CSU-22 spinning disk confocal scanner, iXON EM camera, and 488 nm and 561 nm laser lines to detect BCECF-labeled and rhodamine-labeled platelets, respectively (Revolution XD, Andor Technology). The extent of thrombus formation was assessed for 2 minutes after injury and the area (μm^2) of coverage determined (Image IQ, Andor Technology).
. The BTK inhibitor-treated human platelets were fluorescently labeled and infused continuously through a catheter inserted into the femoral artery. Their behavior in response to laser-induced vascular injury was monitored in real time using two-channel confocal intravital microscopy (Furie and Furie, J. Clin. Invest. 2005, 115(12), 2255-62). Upon induction of arteriole injury untreated platelets rapidly formed thrombi with an average thrombus size of […] (mean±s.e.m.), as shown in FIG. 124 and FIG. 125. […]. […]. […]

Data set [9] has as its system CD8^+ T cell function. As to the kind of experiment: IFN-γ level measurements for CD8+ T cell function. The class given is cell-based. To be noted: relative to vehicle.
The subject of data set [10] is Raji cells. The experiment in a line: Rituximab ADCC assay (51Cr release), healthy donor NK cells. The class given is cell-based, human. The following applies: 1 μM.
The subject of data set [11] is NK cells. As to the kind of experiment: Antibody-stimulated NK cell degranulation (CD107a), flow cytometry. The class given is cell-based, human. The following applies: DHL-4 target cells.
Data set [12] has as its system regulatory T cell (Treg) development. The experiment in a line: Regulatory T cell (Treg) development. The class given is cell-based.
Data set [13] has as its system Raji cells. The experiment in a line: Antibody-dependent NK cell-mediated cytotoxicity, chromium release assay, Raji cells. The class given is cell-based. The following applies: 1 μM, rituximab, effector:target 25:1, 4 hours.
For data set [14], the system named is T helper 17 (Th17) cells. As to the kind of experiment: Effect on T helper 17 (Th17) cells. The class given is cell-based.
The test system of data set [15] is CD8^+ T cells. As to the kind of experiment: CD8+ T cell viability (LIVE/DEAD staining, 4 days). The class given is cell-based. The protocol:
Total T cells were plated on anti-TCR and anti-CD28 coated wells in the presence of both BTK inhibitors. Neutral culture conditions were used that will not polarize T cells to a helper lineage. The cells are grown for 4 days and are then stained with anti-CD4, anti-CD8 and LIVE/DEAD reagent to determine if the drugs have selective effects on either the CD4^+ or CD8^+ cells. Statistical significance was calculated using the Mann Whitney T-test. […]

Data set [16] relates to relapsed/refractory CLL. The following applies: cited from earlier work.

Take `C=CC(=O)Nc1cccc(Nc2nc(Nc3ccc(OCCOC)cc3)ncc2F)c1` [CC-292]: the half-maximal effective concentration (EC50) in data set [1] is 121 nM.

In the case of `C[C@H](Nc1ncnc2[nH]cnc12)c1cc2ccc(F)cc2nc1-c1ccccn1` [Formula (IX), (S)—N-(1-(7-fluoro-2-(pyridin-2-yl)quinolin-3-yl)ethyl)-9H-purin-6-amine, reference compound], in [2], the “tumor volume versus vehicle” value was “statistically significant reductions in tumor volume”.

For `C=CC(=O)N1CCC[C@@H](n2nc(-c3ccc(Oc4ccccc4)cc3)c3c(N)ncnc32)C1` [ibrutinib, 1-[(3R)-3-[4-amino-3-(4-phenoxyphenyl)-1H-pyrazolo[3,4-d]pyrimidin-1-yl]piperidin-1-yl]prop-2-en-1-one, reference compound], the “CD8+ T cell function as measured by % cytotoxicity” value in data set [3] is reported as “affects CD8^+ T cell function”. The GPVI platelet aggregation result in data set [4] is reported as “significantly inhibits GPVI platelet aggregation”. Moreover, in data set [5], the “effect on CD8+ T cell viability” value is “strongly affects CD8^+ T cell viability at higher doses”. Besides, in data set [6], the “effect on Th17 and Treg development” value is “profound inhibition of Th17 cells and an increase in Treg development”. In data set [7], the “CD8^+ T cell function as % cytotoxicity” value is recorded as “affects CD8^+ T cell function” and the “CD8^+ T cell function as IFN-γ levels” value was “significant loss of function”. The “effect on thrombus formation” value in data set [8] is “interfere with thrombus formation”. In addition, the “CD8+ T cell function as measured by IFN-γ level” value in data set [9] was “affects CD8^+ T cell function”. In addition, the “effect on rituximab-mediated ADCC” value in data set [10] was “strongly inhibited”. In addition, the “inhibition of rituximab-stimulated NK cell degranulation” value in data set [11] is on record as roughly 50%. The “effect on Treg development” value in data set [12] is listed as “strongly increases Treg development”. The “antibody-dependent NK cell-mediated cytotoxicity (percent lysis of tumor cells)” value in data set [13] was “antagonizes antibody-dependent NK cell-mediated cytotoxicity”. Also, the “effect on Th17 cells” value in data set [14] was “strongly inhibits Th17 cells”. The “effect on CD8^+ T cell viability” value in data set [15] is on record as “strong, negative effect on CD8^+ T cell viability”.

“obinutuzumab: type II glycoengineered CD20 monoclonal antibody”: in [16] (Phase 1 portion (n=13)), the “Grade 3 IRRs” value is on record as 15% and the “patients who experienced IRRs” value is recorded as “all patients”. For the same molecule, in data set [16] (Phase 2 portion), the “IRR cases developing symptoms of hypotension” value is given as 60%, the “hypotension cases that were Grade 3 reactions” value is recorded as 25% and the “patients who developed IRR” value is listed as 95%. In addition, in data set [16] (monotherapy, Phase 1, previously treated CLL), the response rate is reported as 62%.
